Results from patent publication US20180200233A1, “COMPOSITIONS FOR PREVENTING CANCERS ASSOCIATED WITH HUMAN PAPILLOMA VIRUSES” (Loma Linda University, priority 2015, published 2018).

Columns and labels:
[1] = tested on: UPCI-SCC90-UP-Clone 35 (#90) cells; assay: MTT cell viability, HPV+ HNSCC cell line #90 with TRAIL; assay type: cell-based; details: HPV+ #90 cells, 50 ng/ml TRAIL
Experimental: (§1) FIGS. 7A-E are graphs showing myricetin and spinacine (5) re-sensitized HPV^+, but not HPV^−, head and neck cancer cell lines to treatment with TRAIL. (FIG. 7A) Both HPV^− and HPV^+ HN cancer cell lines display resistance to TRAIL treatment. HPV^− (#84) (Myricetin—FIG. 7B; Spinacine—FIG. 7C) and HPV^+ (#90) (FIG. 7D; Spinacine—FIG. 7E) head and neck cancer cell lines (2×10^4 cells per well) were seeded into 96-well plates and allowed to incubate overnight, then cells were pre-treated with myricetin (0-200 μM) or spinacine (0-100 μM) for 4 h. 50 μM of TRAIL, along with cycloheximide (5 μg/ml) was added and cells were allowed to incubate overnight. Cell viability was measured by the MTT assay, and the viability of cells untreated with small molecules was set at 100%. Experiments were performed in triplicate, and error bars indicate the standard deviation.
As shown above, myricetin and spinacine sensitize SiHa cells to TRAIL and chemotherapy drugs. […] Other types of HPV^+ cancer cells were examined, and in particular, head and neck squamous cell carcinoma (HNSCC) cells can also be sensitized in this manner. […] For the combination experiments, 50 ng/ml TRAIL was applied in combination with either myricetin (0-200 μM) or spinacine (0-100 μM). […] In contrast […], TRAIL-induced cell death was enhanced 30% in UPCI-SCC90-UP-Clone 35, #90. Furthermore, 40 μM spinacine was able to enhance TRAIL-induced cell death in the HPV^+ #90 cell lines up to 50%.
The extracellular domain of human TRAIL was cloned into a pTriEx expression plasmid containing N-terminal Hisx6 tag. His-TRAIL was expressed in the E. coli BL-21 pLys strain and purified as previously described. Doxorubicin and cisplatin were purchased from Sigma. His-TRAIL, doxorubicin, and cisplatin were diluted in PBS to the desired concentration before using. […] All experiments were repeated at least three times (three biological replicates, carried out on different days), with each experimental group measured in triplicate within each of these individual experiments. […]

SCC84 (#84) cells = assay: MTT cell viability, HPV- HNSCC cell line #84 with TRAIL; assay type: cell-based; details: 50 ng/ml TRAIL with myricetin 0-200 μM or spinacine 0-100 μM
Experimental: as §1, with “50 μM of TRAIL, along with cycloheximide (5 μg/ml) was added and cells were allowed to incubate overnight.” left out
As shown above, myricetin and spinacine sensitize SiHa cells to TRAIL and chemotherapy drugs. […] Other types of HPV^+ cancer cells were examined, and in particular, head and neck squamous cell carcinoma (HNSCC) cells can also be sensitized in this manner. […]
The extracellular domain of human TRAIL was cloned into a pTriEx expression plasmid containing N-terminal Hisx6 tag. […] All experiments were repeated at least three times (three biological replicates, carried out on different days), with each experimental group measured in triplicate within each of these individual experiments. […]

GST-E6/His-E6AP = molecular target: T1, GST-E6/His-E6AP (Human papillomavirus type 16, UniProt P03126); assay: AlphaScreen bead-based assay, GST-E6/His-E6AP binding; parameters: species or system HPV 16
T1 construct: made in house
Experimental: FIGS. 2A-C are graphs providing data regarding inhibition of protein-protein interactions by 3-(1H-indol-1yl)propan-1-amine (1), three benzimidazole derivatives (2-4), and spinacine (5). Compounds, at the indicated concentrations (1.4 μM to 3.2 mM) were tested using a bead-based screening assay for their ability to inhibit three different protein/protein interactions: (FIG. 2A) GST-E6/His-caspase 8; (FIG. 2B) GST-E6/HisE6AP; and (FIG. 2C) GST-caspase 8/His-caspase 8. Binding in the presence of 1.4 μM of the test compound was set at 100%. Experiments were performed in triplicate, and error bars indicate the standard deviation.
To determine the dose-responsiveness of these five compounds, variable concentrations of those small molecules were first tested for their ability to inhibit E6/caspase binding. […] These molecules, which had been selected for their ability to interfere with E6/caspase 8 binding, were then tested to determine if they could also affect other interactions of E6, such as its binding to E6-associated protein (E6AP). The E6/E6AP interaction is required for the E6-mediated acceleration of p53 degradation (Huibregtse, J. M., M. Scheffner, and P. M. Howley, A cellular protein mediates association of p53 with the E6 oncoprotein of human papillomavirus types 16 or 18. The EMBO journal, 1991. 10(13): p. 4129-35).
Alpha-Screen™ technology was used to assess the interactions between GST-E6, GST-caspase 8, His-E6AP, and His-caspase 8. Binding assays were performed in white 384-well plates (Perkin-Elmer) in a total volume of 25 μl as previously described (Tungteakkhun, S. S., et al., The interaction between human papillomavirus type 16 and FADD is mediated by a novel E6 binding domain. Journal of virology, 2008. 82(19): p. 9600-14). Briefly, 5 μl (50 ng) of GST-E6 and 5 μl (87.5 ng) of His-caspase 8 were included in each reaction mixture with 5 μl blocking buffer (0.5 mg BSA, 0.5% Tween 20 in PBS) in the absence or presence of 10 μM of each test chemical. Members of the library were present at […] in DMSO. After a one-hour incubation of the mixture at room temperature, 5 μl donor beads and 5 μl acceptor beads (Perkin-Elmer) were added to each well according to the manufacturer's protocol. The mixture was incubated in the dark at room temperature overnight, and the emitted signal was detected using the Envision Multilabel plate reader (Perkin-Elmer). In the presence of test chemicals, the binding affinity was calculated as a percentage of the binding in the presence of carrier only (DMSO).

T1 sequence (P03126 whole entry): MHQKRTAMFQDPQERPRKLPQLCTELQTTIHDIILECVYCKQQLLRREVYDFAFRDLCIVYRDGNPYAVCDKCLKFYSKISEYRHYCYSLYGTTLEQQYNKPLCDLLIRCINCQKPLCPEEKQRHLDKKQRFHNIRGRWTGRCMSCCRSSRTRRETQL

Structure (SMILES)	enhancement of TRAIL-induced cell death ([1]; myricetin 0-200 μM)	response of HPV- HNSCC cell line #84 to TRAIL (in words) (SCC84 (#84) cells)	enhancement of TRAIL-induced cell death ([1]; 40 μM spinacine)	inhibition of E6/E6AP interaction (in words) (GST-E6/His-E6AP; FIG. 2B)	EC50 for GST-E6/His-E6AP interaction (GST-E6/His-E6AP; bead-based assay, compounds tested 1.4 μM to 3.2 mM)
O=c1c(O)c(-c2cc(O)c(O)c(O)c2)oc2cc(O)cc(O)c12 [Myricetin, reference compound]	30%	resistant	–	–	–
O=C(O)C1Cc2[nH]cnc2CN1 (stereo not drawn) [Compound 5, 4,5,6,7-Tetrahydro-1H-imidazo(4,5-c)pyridine-6-carboxylic acid]	–	resistant	up to 50%	could also inhibit the E6/E6AP interaction	–
OCn1cnc2ccccc21 [Compound 3, 1H-benzimidazole-1-methanol]	–	–	–	–	No Inhibition
